We go through 11 compounds from ChEMBL document CHEMBL4665623, “Rational drug design for androgen receptor and glucocorticoids receptor dual antagonist” (Eur J Med Chem, 2019).

In one data set the test system is LNCaP. In words: Antiproliferative activity against human LNCAP cells assessed as reduction in cell growth incubated for 72 hrs by MTT assay. (In general: Tetrazolium dyes change colour on reduction, which living cells bring about.)
A short description of data set [1]: Antiproliferative activity against human 22Rv1 cells assessed as reduction in cell growth incubated for 72 hrs by MTT assay. To be noted: H22, 72 h.
For data set [2], the target named is T1, Androgen receptor (Rattus norvegicus) (UniProt P15207).
T1 sequence (whole entry): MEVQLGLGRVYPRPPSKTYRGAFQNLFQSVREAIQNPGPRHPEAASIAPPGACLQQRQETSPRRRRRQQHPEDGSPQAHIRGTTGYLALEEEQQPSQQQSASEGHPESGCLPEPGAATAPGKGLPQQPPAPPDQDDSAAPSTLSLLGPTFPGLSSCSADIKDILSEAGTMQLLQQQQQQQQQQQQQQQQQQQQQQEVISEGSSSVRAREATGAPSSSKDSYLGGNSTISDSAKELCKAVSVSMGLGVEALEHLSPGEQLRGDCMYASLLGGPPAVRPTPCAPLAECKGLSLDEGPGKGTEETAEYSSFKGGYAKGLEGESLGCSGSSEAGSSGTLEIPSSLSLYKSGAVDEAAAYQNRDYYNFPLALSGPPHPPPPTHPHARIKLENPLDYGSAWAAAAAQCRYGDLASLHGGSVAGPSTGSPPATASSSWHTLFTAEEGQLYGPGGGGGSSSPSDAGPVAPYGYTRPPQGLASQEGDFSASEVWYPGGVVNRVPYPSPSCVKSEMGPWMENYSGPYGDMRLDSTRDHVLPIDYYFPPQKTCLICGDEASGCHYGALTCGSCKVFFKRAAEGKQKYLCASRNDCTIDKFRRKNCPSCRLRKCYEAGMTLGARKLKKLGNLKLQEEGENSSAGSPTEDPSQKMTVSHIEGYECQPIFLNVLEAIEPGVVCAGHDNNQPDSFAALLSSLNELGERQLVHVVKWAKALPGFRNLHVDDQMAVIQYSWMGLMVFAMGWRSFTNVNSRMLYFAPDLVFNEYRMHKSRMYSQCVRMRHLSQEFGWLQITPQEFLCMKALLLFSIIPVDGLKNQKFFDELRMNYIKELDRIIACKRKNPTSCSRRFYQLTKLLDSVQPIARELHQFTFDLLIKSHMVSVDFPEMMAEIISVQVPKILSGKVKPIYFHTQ
Particulars: filed as antagonist, time 1.0 min.

The nature of data set [3]: Effect on androgen receptor expression in human LNCaP cells at 1 and 10 uM incubated for 24 hrs by Western blot analysis. The class given is ADME, cell-based. To be noted: dose 1-10 µM.
Data set [4] in a line: Effect on glucocorticoid receptor expression in human PC-3 cells at 10 uM incubated for 24 hrs by Western blot analysis. The class given is ADME, cell-based. To be noted: pc-3, 24 h. In general terms: Immunoblotting shows a protein as a band on a membrane.
In another data set the target is T2, Androgen receptor (Homo sapiens, UniProt P10275).
T2 sequence (P10275 whole entry): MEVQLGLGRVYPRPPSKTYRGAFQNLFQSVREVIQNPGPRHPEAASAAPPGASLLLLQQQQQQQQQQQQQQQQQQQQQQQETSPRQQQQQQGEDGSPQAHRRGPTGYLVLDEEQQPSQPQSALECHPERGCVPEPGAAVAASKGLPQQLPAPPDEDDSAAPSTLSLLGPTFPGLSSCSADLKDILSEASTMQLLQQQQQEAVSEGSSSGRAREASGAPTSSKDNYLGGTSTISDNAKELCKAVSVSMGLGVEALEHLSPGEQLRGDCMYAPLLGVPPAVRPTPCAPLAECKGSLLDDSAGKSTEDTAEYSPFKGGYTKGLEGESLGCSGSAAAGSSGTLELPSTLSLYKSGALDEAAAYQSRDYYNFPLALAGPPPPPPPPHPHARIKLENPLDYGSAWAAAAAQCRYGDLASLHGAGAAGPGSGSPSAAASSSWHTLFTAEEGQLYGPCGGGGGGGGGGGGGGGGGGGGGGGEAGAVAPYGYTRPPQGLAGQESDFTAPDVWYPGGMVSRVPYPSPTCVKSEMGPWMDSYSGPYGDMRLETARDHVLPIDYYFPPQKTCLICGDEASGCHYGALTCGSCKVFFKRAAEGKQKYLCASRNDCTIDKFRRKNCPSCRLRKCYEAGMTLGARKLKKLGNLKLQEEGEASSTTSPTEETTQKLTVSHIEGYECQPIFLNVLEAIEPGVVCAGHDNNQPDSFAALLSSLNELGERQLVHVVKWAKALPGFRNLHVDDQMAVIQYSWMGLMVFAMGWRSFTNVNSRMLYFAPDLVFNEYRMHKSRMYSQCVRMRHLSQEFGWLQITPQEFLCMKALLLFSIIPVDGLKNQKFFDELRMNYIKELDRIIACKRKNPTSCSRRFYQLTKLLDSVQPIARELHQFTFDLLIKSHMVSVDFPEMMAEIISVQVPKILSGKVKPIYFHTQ
The data set is described as follows: Antagonist activity at recombinant androgen receptor (unknown origin) transfected in human LNCaP cells co-transfected with PSA and luciferase incubated for 24 hrs by dual luciferase reporter gene assay. It counts as cell-based. On the technique in general: Reporter assays use an easily measured gene product as a stand-in for the process of interest.

For data set [5], the target named is T3, Androgen receptor (Homo sapiens) (UniProt P10275).
T3 sequence (whole entry): T2 sequence (P10275 whole entry)
The data set is described as follows: Antagonist activity at recombinant androgen receptor (unknown origin) transfected in human PC-3 cells co-transfected with PSA and luciferase at 10 uM incubated for 24 hrs by dual luciferase reporter gene assay relative to control. It counts as cell-based.

For data set [6], the target named is T4, Glucocorticoid receptor (Homo sapiens) (UniProt P04150).
T4 sequence (whole entry): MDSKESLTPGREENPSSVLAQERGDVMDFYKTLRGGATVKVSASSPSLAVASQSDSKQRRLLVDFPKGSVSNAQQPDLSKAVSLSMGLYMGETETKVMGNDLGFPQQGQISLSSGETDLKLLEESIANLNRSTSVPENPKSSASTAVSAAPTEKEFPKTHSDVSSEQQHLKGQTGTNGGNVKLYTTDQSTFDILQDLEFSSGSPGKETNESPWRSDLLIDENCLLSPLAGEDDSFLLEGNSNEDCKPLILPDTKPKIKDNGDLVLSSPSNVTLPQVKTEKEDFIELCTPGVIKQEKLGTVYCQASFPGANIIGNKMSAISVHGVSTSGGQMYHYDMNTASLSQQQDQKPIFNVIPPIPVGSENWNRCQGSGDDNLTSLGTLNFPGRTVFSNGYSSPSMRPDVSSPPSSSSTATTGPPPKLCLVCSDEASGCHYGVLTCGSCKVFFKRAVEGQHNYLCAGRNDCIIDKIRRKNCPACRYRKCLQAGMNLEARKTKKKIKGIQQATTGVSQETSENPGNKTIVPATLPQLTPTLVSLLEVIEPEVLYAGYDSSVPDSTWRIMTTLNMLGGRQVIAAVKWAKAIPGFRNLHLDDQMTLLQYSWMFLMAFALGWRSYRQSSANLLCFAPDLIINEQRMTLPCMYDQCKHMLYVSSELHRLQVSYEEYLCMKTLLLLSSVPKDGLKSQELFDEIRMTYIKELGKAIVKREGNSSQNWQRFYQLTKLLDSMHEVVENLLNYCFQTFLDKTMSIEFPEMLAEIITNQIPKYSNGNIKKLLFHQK
To be noted: filed as antagonist, time 1.0 min.

A word on the IC50: it is the concentration that gives 50% inhibition. Usually inhibition stands for the percentage by which the read-out fell short of the control.

Regarding `CNC(=O)c1ccc(N2C(=S)N(c3ccc(C#N)c(C(F)(F)F)c3)C(=O)C2(C)C)cc1F` [ENZALUTAMIDE], the IC50 is 7.9 µM in the data set with LNCaP and greater than 40 µM in data set [1]. Besides, the Kapp in data set [2] turned out to be 24 µM.
Turning to `CCOC(=O)c1ccc(NC(=O)c2cccc(S(=O)(=O)N3CCCc4ccccc43)c2)s1`, the Activity entry in data set [3] and in data set [4] was “Non-Toxic” throughout. Besides, the half-inhibitory concentration (IC50) on Androgen receptor came out at 2.03 µM. In data set [2], this compound registered a Kapp of 15 µM.
`COc1ccc([C@H](NC(=O)c2cccc(S(=O)(=O)N3C[C@H](C)C[C@@H](C)C3)c2)c2nccn2C)cc1`: the inhibition in data set [5] is greater than 20%.
Still for that read-out and setting: the figure for `COc1cc2cc(C(=O)N[C@H](C)C(=O)Nc3nc4ccccc4s3)[nH]c2c(OC)c1OC` is greater than 20%; for `COc1ccccc1[C@H]1[C@H](Oc2cccc(C#N)c2)C(=O)N1Cc1cccc(N2CCCC2=O)c1` it is greater than 20%.
On the same count and under the same terms, the figure for `NC(=O)c1ccn(-c2cccc(NC(=O)C3(NC(=O)NCc4ccccc4)CCCC3)c2)n1` is greater than 20%; for `CCOC(=O)C1CCN(C(=O)Cc2ccc(N(Cc3ccccc3)C(=O)COc3ccccc3)cc2)CC1` it is greater than 20%; for `CCc1ccc(-c2nn(C)c(=O)c3c2CCCC3)cc1S(=O)(=O)NCc1cccc(OC)c1` it is greater than 20%.
In data set [6], `CC#C[C@]1(O)CC[C@H]2[C@@H]3CCC4=CC(=O)CCC4=C3[C@@H](c3ccc(N(C)C)cc3)C[C@@]21C` came in with a Kapp of 32 µM.
Regarding `Cc1nc(-c2ccc(C(C)C)c(S(=O)(=O)Nc3cccc(C#N)c3)c2)cs1`, the inhibition in data set [5] is greater than 20%.
The same measure, in the same setting: the figure for `COc1cccc(-c2ccc(N3CCN(C(=O)CN(Cc4ccccc4)C(=O)c4ccccc4C)CC3)nn2)c1` is greater than 20%.
